Values of other authors, collected in US20040266755A1, “Prodrugs of 1-(1-hydroxy-5-isoquinolinesulfonyl) homopiperazine” (Schering Aktiengesellschaft, priority 2003, published 2004).

System: Rho-kinase
Settings: compared with fasudil; Shimokawa et al. (1999) Cardiovas. Res. 43:1138-1141

Q: Which “specificity of inhibitory effect on Rho-kinase” value does the source give for `O=S(=O)(c1cccc2c(O)nccc12)N1CCCNCC1` [Hydroxyfasudil, 1-(1-hydroxy-5-isoquinolinesulfonyl) homopiperazine] here?
A: more specific inhibitory effect on Rho-kinase than fasudil
